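Compound exposure: 48 hours, 5 concentrations, 96-well plates. GI50 = concentration required for 50% inhibition of growth. TGI is the concentration that stops growth completely.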
Key:
Experiment in all cases: DTP human tumour cell line panel, 48 h
[1] = tested on: TK-10 renal
[2] = tested on: MDA-MB-231 breast
[3] = tested on: UACC-62 melanoma
[4] = tested on: CAKI-1 renal
[5] = tested on: DU-145 prostate
[6] = tested on: BT-549 breast
[7] = tested on: MALME-3M melanoma
[8] = tested on: SF-268 CNS
[9] = tested on: LXFL 529 NSCLC
[10] = tested on: DLD-1 colon

Compound | GI50 [1] | TGI [1] | GI50 [2] | TGI [2] | GI50 [3] | TGI [3] | GI50 [4] | TGI [4] | GI50 [5] | TGI [5] | GI50 [6] | TGI [6] | GI50 [7] | TGI [7] | GI50 [8] | TGI [8] | GI50 [9] | TGI [9] | GI50 [10] | TGI [10]
COc1ccc2c(c1)C(=O)c1c-2n(CCCN=[N+]=[N-])c(=O)c2cc(N)ccc12 | > 100 µM | > 100 µM | > 100 µM | > 100 µM | > 100 µM | > 100 µM | > 100 µM | > 100 µM | > 100 µM | > 100 µM | > 100 µM | > 100 µM | > 100 µM | > 100 µM | > 100 µM | > 100 µM |  |  |  | 
C/C(=C1/N=C(c2ccccc2)OC1=O)c1ccccc1 |  | > 100 µM |  | > 100 µM |  | > 100 µM |  | > 100 µM |  | > 100 µM |  | > 100 µM |  | > 100 µM |  | > 100 µM |  |  |  | 
C/C=C/C=C/CCCCCCCCCCCCC[C@]1(OC)C=CC(CC(=O)OC)OO1 (some centres not stated) | 17.6 µM | 31.7 µM |  |  |  | 29.8 µM | 17.1 µM | 31.1 µM |  |  |  |  |  | 77.5 µM |  | 46.4 µM | 14.7 µM | 28.2 µM | 20.2 µM | 41.9 µM
O=C(c1ccccc1)c1ccc(O)c2ncccc12 | 6.99 µM | > 100 µM | 3.6 µM | 64.3 µM | 2.34 µM | 10.6 µM | 1.13 µM | 6.3 µM | 5.72 µM | 27.6 µM | 5.96 µM | 68.5 µM | 5.1 µM | 46.4 µM | 3.11 µM | > 100 µM |  |  |  | 
CC(C)(C)c1cc(-c2c3nc(c(-c4cc(C(C)(C)C)cc(C(C)(C)C)c4)c4ccc([nH]4)c(-c4cc(C(C)(C)C)cc(C(C)(C)C)c4)c4nc(c(-c5cc(C(C)(C)C)cc(C(C)(C)C)c5)c5ccc2[nH]5)C=C4)C=C3)cc(C(C)(C)C)c1 |  | > 100 µM |  |  |  | > 100 µM |  | > 100 µM |  |  |  |  |  | > 100 µM |  | > 100 µM |  | > 100 µM |  | > 100 µM
CCCCCCCC(=O)NS(=O)(=O)c1ccccc1 |  | > 100 µM |  | > 100 µM |  | > 100 µM |  | > 100 µM |  | > 100 µM |  | > 100 µM |  | > 100 µM |  | > 100 µM |  |  |  | 
N#CSCC1CC(O)(c2ccccc2)CC(c2ccc(Cl)cc2)O1 (configuration not stated) | 2.13 µM | 4.33 µM | 2.8 µM | 11.2 µM | 3.31 µM | 10.9 µM | 3.2 µM | 9.51 µM | 2.18 µM | 4.72 µM | 2.35 µM | 4.83 µM | 2.65 µM | 7.35 µM | 1.8 µM | 3.29 µM |  |  |  | 
C[n+]1cc2cc3c(cc2c2ccccc21)OCO3 | 8.33 µM | 61.4 µM | 10.8 µM | 54 µM | 3.97 µM | 16.4 µM | 46.4 µM | > 100 µM | 4.49 µM | 25.9 µM | 2.95 µM | 16.3 µM | 1.86 µM | 5.16 µM | 0.48 µM | 2.57 µM |  |  |  | 
CC(=O)N1N=C(c2ccc(Nc3nc(Nc4ccc(F)cc4)nc(Nc4ccc(Cl)cc4)n3)cc2)CC1c1ccc(N(C)C)cc1 (configuration not stated) | 8.59 µM | 31 µM | 5.66 µM | 21 µM | 2.26 µM | 7.79 µM | 9.28 µM | > 54.3 µM | 10.2 µM | 39 µM | 5.05 µM | 17.5 µM | 4.78 µM | 23.8 µM | 12.1 µM | 49.2 µM |  |  |  | 
Cc1cc(Cl)cc2c1NC(=O)C2(O)CC(=O)c1ccc(F)cc1 (configuration not stated) |  | > 100 µM |  |  |  | 42 µM |  | > 100 µM |  |  |  |  |  | 75.1 µM |  | > 100 µM |  |  |  | > 100 µM
CCOC(=O)C1=C(C)N(NC(=O)OC)C2(N)N(NC(=O)OC)C(C)=C(C(=O)OCC)C12C#N (configuration not stated) |  |  |  |  |  | > 100 µM |  | > 100 µM |  |  |  |  |  | > 100 µM |  | > 100 µM |  | > 100 µM |  | > 100 µM
O=C(O)c1cc2cc(O)ccc2[nH]1 | > 100 µM | > 100 µM | > 100 µM | > 100 µM | > 100 µM | > 100 µM | > 100 µM | > 100 µM | > 100 µM | > 100 µM | > 100 µM | > 100 µM | > 100 µM | > 100 µM | > 100 µM | > 100 µM |  |  |  | 
CCOC(=O)C1=C(c2ccccc2)NC(c2ccccc2)=C(C(=O)OCC)c2c1c(=O)cc[nH]c2=O |  | > 100 µM |  |  |  | > 100 µM |  | > 100 µM |  |  |  |  |  | > 100 µM |  | > 100 µM |  | > 100 µM |  | > 100 µM
OCCSCC/C(=N\N=C(/CCSCCO)c1ccccc1)c1ccccc1 |  | > 100 µM |  |  |  | > 100 µM |  | > 100 µM |  |  |  |  |  | > 100 µM |  | > 100 µM |  | > 100 µM |  | > 100 µM
CCOC(=O)C(O)Cc1cnc2ccccc2n1 (configuration not stated) |  | > 100 µM |  | > 100 µM |  | > 100 µM |  | > 100 µM |  | > 100 µM |  | > 100 µM |  | > 100 µM |  | > 100 µM |  |  |  | 
COc1ccc(C(=O)C/C(=N/NC(N)=S)C(=O)Nc2ccccc2)cc1 |  | > 100 µM |  |  |  | > 100 µM |  | > 100 µM |  |  |  |  |  | > 100 µM |  | > 100 µM |  | > 100 µM |  | > 100 µM
Cc1ccc(NC(=O)N2CCCCC2)cc1[N+](=O)[O-] | > 100 µM | > 100 µM | > 100 µM | > 100 µM | > 100 µM | > 100 µM | > 100 µM | > 100 µM | > 100 µM | > 100 µM | > 100 µM | > 100 µM | > 100 µM | > 100 µM | > 100 µM | > 100 µM |  |  |  | 
CC(C)c1ccc(/C=N/N=C(N)N)cc1 | 12.9 µM | 26.4 µM | 7.39 µM | 21.5 µM | 7.73 µM | 21.3 µM | 6.31 µM | 22 µM | 11.2 µM | 23.8 µM | 13.2 µM | 30 µM | 5.56 µM | 21.1 µM |  | 25.1 µM |  |  |  | 
C=C[Si](C)(C)COC(=O)/C(C#N)=C/C=C/c1ccccc1 |  |  |  |  |  | > 100 µM |  |  |  |  |  |  |  | > 100 µM |  | > 100 µM |  | > 100 µM |  | > 100 µM
